These results are taken from patent publication US10221173B2, “Chemical compounds” (AstraZeneca AB, priority 2017, dated 2019).

As a reminder, the solubility is the concentration that dissolves in the medium under given conditions. A higher solubility goes with a readily soluble substance. Usually logD stands for lipophilicity at a set pH, counting ionised and neutral species. High values mean a more lipophilic compound, low ones a more hydrophilic compound. Usually IC50 stands for the concentration needed to halve the response being measured.

For one data set, the target named is ER (Homo sapiens (Human), UniProt P03372). The note with it: 500 mg monthly dose; cited from earlier work.
The target in data set [1] is T1, Estrogen Receptor (ERα) in MCF-7 cells (Homo sapiens (Human), UniProt P03372). Kind of data set: Western blotting assay, ER down-regulation in MCF-7. It is filed as cell-based. The note with it: MCF-7, 100 nM compound, 48 h, vs 100 nM fulvestrant. Background: In western blotting, separated proteins are transferred to a membrane and probed.
Data set [2] is described as follows: Thermodynamic solubility (shake-flask). The class given is physicochemical. The note with it: aqueous phosphate buffer, 25 °C, pH 7.4, aqueous buffer, thermodynamic from solid, phosphate buffer pH 7.4, 24 hours.
Data set [3] has as its target estrogen receptor (ERα) in CAMA-1 cells (Homo sapiens (Human), UniProt P03372). The experiment in a line: Western blotting assay, ER down-regulation in CAMA-1. The class given is cell-based. As to conditions: CAMA-1, 100 nM compound, 48 h, vs 100 nM fulvestrant.
The nature of data set [4]: Log D (shake flask, 1-octanol/aqueous buffer). The class given is physicochemical. The note with it: 1-octanol/aqueous buffer, pH 7.4, pH 7.4.
The target of data set [5] is recombinant human Estrogen Receptor alpha ligand binding domain (ER alpha-LBD (GST)) (Homo sapiens (Human), UniProt P03372). The experiment in a line: ERα binding assay (LanthaScreen TR-FRET competition).
Experimental: The ability of compounds to bind to isolated Estrogen Receptor Alpha Ligand binding domain (ER alpha—LBD (GST)) was assessed in competition assays using a LanthaScreen Time-Resolved Fluorescence Resonance Energy Transfer (TR-FRET) detection end-point. For the LanthaScreen TR-FRET endpoint, a suitable fluorophore (Fluormone ES2, ThermoFisher, Product code P2645) and recombinant human Estrogen Receptor alpha ligand binding domain, residues 307-554 (expressed and purified in-house) were used to measure compound binding. The assay principle is that ER alpha-LBD (GST) is added to a fluorescent ligand to form a receptor/fluorophore complex. A terbium-labelled anti-GST antibody (Product code PV3551) is used to indirectly label the receptor by binding to its GST tag, and competitive binding is detected by a test compound's ability to displace the fluorescent ligand, resulting in a loss of TR-FRET signal between the Tb-anti-GST antibody and the tracer. The assay was performed as follows with all reagent additions carried out using the Beckman Coulter BioRAPTR FRD microfluidic workstation: • 1. Acoustic dispense 120 nL of the test compound into a black low volume 384 well assay plates. • 2. Prepare 1× ER alpha-LBD/Tb-antiGST Ab in ES2 screening buffer and incubate for 15 minutes. • 3. […] Cover the assay plate to protect the reagents from light and evaporation, and incubate at room temperature for 4 hours. • 5. Excite at 337 nm and measure the fluorescent emission signal of each well at 490 nm and 520 nm using the BMG PheraSTAR.
TR-FRET dose response data obtained with each compound was exported into a suitable software package (such as Origin or Genedata) to perform curve fitting analysis. Competitive ER alpha binding was expressed as an IC50 value.
Data set [6] is described as follows: Human plasma protein binding (equilibrium dialysis). The class given is in vitro ADME. Background: In equilibrium dialysis free small molecules cross a membrane that holds back macromolecules.
For another data set, the target named is hERG potassium channel (Homo sapiens (Human), UniProt Q12809).
Data set [7] has as its target T1, Estrogen Receptor (ERα) in MCF-7 cells. The experiment in a line: MCF-7 ER down-regulation assay (immuno-fluorescence). The class given is cell-based.

Values after ≈ are worked out from the molar mass of the structure shown.

Sequence of recombinant human Estrogen Receptor alpha ligand binding domain (ER alpha-LBD (GST)) (P03372 307-554): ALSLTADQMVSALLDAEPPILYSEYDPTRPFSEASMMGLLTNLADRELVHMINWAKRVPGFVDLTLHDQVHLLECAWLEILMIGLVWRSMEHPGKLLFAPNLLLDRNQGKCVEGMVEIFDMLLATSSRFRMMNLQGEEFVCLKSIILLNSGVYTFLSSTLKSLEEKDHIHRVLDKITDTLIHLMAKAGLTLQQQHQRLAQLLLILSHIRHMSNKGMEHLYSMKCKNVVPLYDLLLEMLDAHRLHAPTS
T1 sequence (P03372 whole entry): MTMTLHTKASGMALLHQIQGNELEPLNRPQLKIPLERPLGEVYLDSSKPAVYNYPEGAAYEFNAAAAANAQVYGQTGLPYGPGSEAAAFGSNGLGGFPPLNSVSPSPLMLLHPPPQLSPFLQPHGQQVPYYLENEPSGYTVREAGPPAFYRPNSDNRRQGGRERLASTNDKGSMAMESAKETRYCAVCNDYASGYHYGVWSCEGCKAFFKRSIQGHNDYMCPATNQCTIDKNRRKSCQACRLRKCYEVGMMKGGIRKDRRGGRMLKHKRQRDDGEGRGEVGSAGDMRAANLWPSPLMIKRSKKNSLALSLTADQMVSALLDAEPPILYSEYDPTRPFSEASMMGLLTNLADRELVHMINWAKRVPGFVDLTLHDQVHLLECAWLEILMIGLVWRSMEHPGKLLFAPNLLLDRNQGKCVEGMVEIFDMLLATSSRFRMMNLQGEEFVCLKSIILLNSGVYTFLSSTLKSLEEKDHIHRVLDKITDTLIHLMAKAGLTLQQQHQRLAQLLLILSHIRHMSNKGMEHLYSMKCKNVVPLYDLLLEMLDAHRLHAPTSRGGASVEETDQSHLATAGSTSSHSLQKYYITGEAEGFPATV
Sequence of estrogen receptor (ERα) in CAMA-1 cells (P03372 whole entry): as above
Sequence of hERG potassium channel (Q12809 whole entry): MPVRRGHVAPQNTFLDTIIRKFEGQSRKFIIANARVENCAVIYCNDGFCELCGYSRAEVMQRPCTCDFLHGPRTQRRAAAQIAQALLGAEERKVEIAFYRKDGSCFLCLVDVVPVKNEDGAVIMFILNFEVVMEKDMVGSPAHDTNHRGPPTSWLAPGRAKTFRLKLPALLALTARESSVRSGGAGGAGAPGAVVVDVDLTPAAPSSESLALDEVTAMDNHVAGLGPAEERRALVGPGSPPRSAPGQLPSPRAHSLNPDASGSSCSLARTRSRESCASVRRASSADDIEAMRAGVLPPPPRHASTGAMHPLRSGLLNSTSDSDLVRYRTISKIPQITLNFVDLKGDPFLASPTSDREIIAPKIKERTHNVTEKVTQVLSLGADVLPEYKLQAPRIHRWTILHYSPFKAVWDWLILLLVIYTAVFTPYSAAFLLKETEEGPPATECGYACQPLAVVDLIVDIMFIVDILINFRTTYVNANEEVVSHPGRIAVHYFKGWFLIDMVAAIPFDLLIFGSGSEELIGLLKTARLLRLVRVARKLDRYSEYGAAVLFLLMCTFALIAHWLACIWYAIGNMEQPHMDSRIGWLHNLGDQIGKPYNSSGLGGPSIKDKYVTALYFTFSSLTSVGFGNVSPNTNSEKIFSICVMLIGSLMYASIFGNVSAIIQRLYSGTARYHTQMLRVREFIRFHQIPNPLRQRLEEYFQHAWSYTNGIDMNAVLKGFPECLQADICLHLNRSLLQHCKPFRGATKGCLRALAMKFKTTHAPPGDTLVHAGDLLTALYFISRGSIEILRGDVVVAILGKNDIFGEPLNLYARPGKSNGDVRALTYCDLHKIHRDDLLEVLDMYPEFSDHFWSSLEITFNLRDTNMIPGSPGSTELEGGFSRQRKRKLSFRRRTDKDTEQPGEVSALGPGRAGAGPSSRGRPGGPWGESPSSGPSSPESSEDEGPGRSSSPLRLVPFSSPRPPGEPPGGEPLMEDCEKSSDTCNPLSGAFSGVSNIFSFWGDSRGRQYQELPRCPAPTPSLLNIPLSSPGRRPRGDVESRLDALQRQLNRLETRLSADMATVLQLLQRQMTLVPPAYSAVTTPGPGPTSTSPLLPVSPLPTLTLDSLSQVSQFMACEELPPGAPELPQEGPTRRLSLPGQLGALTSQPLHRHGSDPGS
Sequence of ER (P03372 whole entry): as the sequence (P03372 whole entry) above
Experimental for hERG potassium channel: The assay was conducted as follows with all reagents used at room temperature unless otherwise stated.
All compounds were acoustically dispensed in quadruplicate using a Labcyte Echo.
Calculation of results is performed using APC package within Genedata. For the routine normalization of well data with Neutral and Inhibitor control well groups as reference, GeneData Assay Analyzer uses the following equation to normalize the signal values to the desired signal range:
[formula] x is the measured raw signal value of a well is the median of the measured signal values for the Central Reference (Neutral) wells on a plate is the median of the measured signal values for the Scale Reference (Inhibitor) wells on a plate CR is the desired median normalized value for the Central Reference (Neutral) SR is the desired median normalized value for the Scale Reference (Inhibitor)

For the compound `C[C@]12CC[C@@H]3c4ccc(O)cc4C[C@@H](CCCCCCCCC[S+]([O-])CCCC(F)(F)C(F)(F)F)[C@H]3[C@@H]1CC[C@@H]2O` (stereo partly drawn) [Fulvestrant], the “turnover of the receptor in patient samples” value on ER is listed as “less than 50%”.
On to `COc1ccc(OCCNCCCF)cc1[C@@H]1c2[nH]c3ccc(F)cc3c2C[C@@H](C)N1CC(F)(F)CO` [Example 46, 2,2-difluoro-3-((1R,3R)-6-fluoro-1-(5-(2-((3-fluoropropyl)amino)ethoxy)-2-methoxyphenyl)-3-methyl-1,3,4,9-tetrahydro-2H-pyrido[3,4-b]indol-2-yl)propan-1-ol], for which, in [1], the “MCF7 Western % ER deg vs Fv” value came to 83%. Further, in data set [2], the solubility at 24 h is 462 µM (≈ 242 µg/mL). Further, in data set [3], the “CAMA1 Western % ER deg vs Fv” value is on record as 89%. In [4], this compound yielded a log distribution coefficient (logD) of 2.8. In addition, the figures for the IC50 (in data set [5]; at hERG potassium channel; in [7]) were 1 nM, 2700 nM and 0.22 nM, respectively. Also, the “Human plasma protein binding (% free)” value in data set [6] is on record as 2.4 % free.
On to `C[C@@H]1Cc2c([nH]c3ccccc23)[C@@H](c2cc(OCCNCCCF)ccn2)N1CC(F)(F)F` [Example 35, 3-fluoro-N-(2-((2-((1S,3R)-3-methyl-2-(2,2,2-trifluoroethyl)-2,3,4,9-tetrahydro-1H-pyrido[3,4-b]indol-1-yl)pyridin-4-yl)oxy)ethyl)propan-1-amine], for which the “MCF7 Western % ER deg vs Fv” value in data set [1] is on record as 94%. For the same compound, in data set [2], the solubility at 24 h was found to be 222 µM (≈ 103 µg/mL). For the same compound, in data set [3], the “CAMA1 Western % ER deg vs Fv” value was determined as 92%. Besides, the pH-dependent lipophilicity (logD) in [4] is 3.1. Further, the 50% inhibitory concentration (IC50) in data set [5] stood at 1.9 nM; at hERG potassium channel, 5600 nM; in data set [7], 1.1 nM. Besides, the “Human plasma protein binding (% free)” value in data set [6] is 5.4 % free.
With `C[C@@H]1Cc2c([nH]c3ccccc23)[C@@H](c2c(F)cnc(OCCNCCCF)c2F)N1CC(F)(F)F` [Example 107, N-(2-((3,5-difluoro-4-((1R,3R)-3-methyl-2-(2,2,2-trifluoroethyl)-2,3,4,9-tetrahydro-1H-pyrido[3,4-b]indol-1-yl)pyridin-2-yl)oxy)ethyl)-3-fluoropropan-1-amine], in data set [1], the “MCF7 Western % ER deg vs Fv” value was found to be 95%. The solubility at 24 h in data set [2] came out at 120 µM (≈ 60.1 µg/mL). Also, the “CAMA1 Western % ER deg vs Fv” value in data set [3] is on record as 98%. The logD in [4] turned out to be 3.6. Further, the half-inhibitory concentration (IC50) was 1.3 nM in [5], 8100 nM at hERG potassium channel and 0.21 nM in data set [7]. Also, the “Human plasma protein binding (% free)” value in data set [6] is on record as 1 % free.
As to `Cc1c(OCCNCCCF)ccnc1[C@@H]1c2[nH]c3ccccc3c2C[C@@H](C)N1CC(F)(F)CO` [Example 96, 2,2-difluoro-3-((1S,3R)-1-(4-(2-((3-fluoropropyl)amino)ethoxy)-3-methylpyridin-2-yl)-3-methyl-1,3,4,9-tetrahydro-2H-pyrido[3,4-b]indol-2-yl)propan-1-ol], in [1], the “MCF7 Western % ER deg vs Fv” value is recorded as 94%. The compound also yielded a solubility at 24 h in data set [2] of 960 µM (≈ 471 µg/mL). Further, the “CAMA1 Western % ER deg vs Fv” value in data set [3] was found to be 100%. The compound also had a log distribution coefficient (logD) in data set [4] of 2.4. The values for the IC50 (in [5]; on hERG potassium channel; in data set [7]) were 1.4 nM, 10000 nM and 0.2 nM, respectively. The “Human plasma protein binding (% free)” value in data set [6] was 7.1 % free.
Consider `COc1ccc(OCCNCCCF)cc1[C@@H]1c2[nH]c3ccccc3c2C[C@@H](C)N1CC(F)(F)F` [Example 7, 3-Fluoro-N-(2-(4-methoxy-3-((1R,3R)-3-methyl-2-(2,2,2-trifluoroethyl)-2,3,4,9-tetrahydro-1H-pyrido[3,4-b]indol-1-yl)phenoxy)ethyl)propan-1-amine], for which the “MCF7 Western % ER deg vs Fv” value in data set [1] is 100%. The compound also had a solubility at 24 h in data set [2] of 35 µM (≈ 17.3 µg/mL). Moreover, the “CAMA1 Western % ER deg vs Fv” value in [3] amounted to 90%. The compound further registered a logD in [4] of 3.7. In addition, the values for the IC50 (in data set [5]; on hERG potassium channel; in [7]) were 1.5 nM, 3800 nM and 0.12 nM, respectively. Also, the “Human plasma protein binding (% free)” value in [6] was found to be 1.5 % free.
For `C[C@@H]1Cc2c([nH]c3ccccc23)[C@@H](c2c(F)ccc(OCCNCCCF)c2F)N1CC(F)F` [Example 51, N-(2-(3-((1R,3R)-2-(2,2-difluoroethyl)-3-methyl-2,3,4,9-tetrahydro-1H-pyrido[3,4-b]indol-1-yl)-2,4-difluorophenoxy)ethyl)-3-fluoropropan-1-amine], in [1], the “MCF7 Western % ER deg vs Fv” value is listed as 92%. Besides, the solubility at 24 h in data set [2] worked out at 122 µM (≈ 58.7 µg/mL). Moreover, the “CAMA1 Western % ER deg vs Fv” value in [3] is reported as 93%. Also, the logD in data set [4] was found to be 3.2. Also, the IC50 was 1.2 nM in data set [5], 4100 nM against hERG potassium channel and 0.12 nM in data set [7]. Also, the “Human plasma protein binding (% free)” value in data set [6] is 2.3 % free.
In the case of `Cc1ccc2[nH]c3c(c2c1)C[C@@H](C)N(CC(F)(F)CO)[C@@H]3c1c(F)ccc(OCCNCCCF)c1F` [Example 63, 3-((1R,3R)-1-(2,6-difluoro-3-(2-((3-fluoropropyl)amino)ethoxy)phenyl)-3,6-dimethyl-1,3,4,9-tetrahydro-2H-pyrido[3,4-b]indol-2-yl)-2,2-difluoropropan-1-ol], the “MCF7 Western % ER deg vs Fv” value in data set [1] is on record as 94%. Moreover, the solubility at 24 h in [2] is 273 µM (≈ 143 µg/mL). In addition, the “CAMA1 Western % ER deg vs Fv” value in [3] stood at 85%. For the same compound, the logD in data set [4] was 3.1. Besides, the half-maximal inhibitory concentration (IC50) in [5] was 1.1 nM; at hERG potassium channel, 4700 nM; in [7] it was 0.32 nM. The “Human plasma protein binding (% free)” value in data set [6] is listed as 0.97 % free.
